Reference: DBAASP
In brackets after ≈: the same amount, converted by molar mass.

How the values were obtained:
Experiment in all cases: ≥ marks a high value that may be exact or a test limit, other limits are often not marked, values filed in µg/mL are converted to µM
[1] = system: Klebsiella pneumoniae 01-252
[2] = system: Klebsiella pneumoniae 01-239
[3] = system: Staphylococcus aureus ATCC 29213
[4] = system: Acinetobacter baumannii 5821
[5] = system: Pseudomonas aeruginosa 5106
[6] = system: Staphylococcus aureus 06-051
[7] = system: Enterobacter cloacae 06-267
[8] = system: Escherichia coli 170
[9] = system: Pseudomonas aeruginosa ATCC 9027
[10] = system: Staphylococcus aureus ATCC 25923
[11] = system: Escherichia coli 09-240
[12] = system: Escherichia coli ATCC 25922
[13] = system: Staphylococcus aureus 01-001
[14] = system: Escherichia coli 09-280
[15] = system: Pseudomonas aeruginosa ATCC 27853
[16] = system: Escherichia coli 5509
[17] = system: Enterobacter cloacae 14-262
[18] = system: Pseudomonas aeruginosa 3599
[19] = system: Candida albicans ATCC 2002
[20] = system: Staphylococcus aureus ATCC 2592
[21] = system: Pseudomonas fluorescens ATCC 13525
[22] = system: Bacillus subtilis ATCC 6633
[23] = system: Fusobacterium nucleatum NCTC 10562
[24] = system: Streptococcus mutans ATCC 10449
[25] = system: Acinetobacter baumannii
[26] = system: Candida albicans NCTC 3179
[27] = system: Stenotrophomonas maltophilia
[28] = system: Enterococcus faecalis NCTC 12697
[29] = system: Escherichia coli ATCC 25726
[30] = system: Helicobacter pylori ATCC 43504
[31] = system: Pseudomonas aeruginosa PAO239
[32] = system: Escherichia coli ML-35p
[33] = system: Staphylococcus aureus ST1065
[34] = system: Staphylococcus aureus ATCC BAA-44
[35] = system: Staphylococcus aureus ATCC 43300
[36] = system: Candida albicans NCYC 1467
[37] = system: Candida parapsilosis ATCC 22019
[38] = system: Staphylococcus aureus NCTC 10788
[39] = system: Enterococcus faecalis ATCC 29212
[40] = system: Rhodococcus rhodochrous X15
[41] = system: Enterococcus faecium 091299
[42] = system: Psychrobacter faecalis X29
[43] = system: Bacillus licheniformis X39
[44] = system: Staphylococcus carnosus KHS

**Q.** With `CC[C@H](C)[C@H](N)C(=O)N[C@@H](Cc1c[nH]c2ccccc12)C(=O)N[C@@H](CO)C(=O)N[C@@H](C)C(=O)N[C@H](C(=O)N[C@@H](Cc1c[nH]c2ccccc12)C(=O)N[C@@H](CO)C(=O)NCC(=O)N[C@H](C(=O)N[C@@H](CCCCN)C(=O)NCC(=O)N[C@@H](CC(C)C)C(=O)N[C@@H](CC(C)C)C(N)=O)[C@@H](C)CC)[C@@H](C)CC` [IWSAIWSGIKGLL] as the molecule, how does the MIC [1] read?
**A.** The MIC was at least 32 µM.

**Q.** What about the MIC [2] of the same molecule?
**A.** Its MIC is at least 32 µM.

**Q.** What about the MIC [3] of the same molecule?
**A.** The MIC was 4 µM (≈ 5.77 µg/mL).

**Q.** What about the MIC [4] of the same molecule?
**A.** Its MIC is 14 µM (≈ 20.2 µg/mL).

**Q.** What about the MIC [5] of the same molecule?
**A.** Its MIC is at least 32 µM.

**Q.** What about the MIC [6] of the same molecule?
**A.** The MIC was 2 µM (≈ 2.89 µg/mL).

**Q.** What about the MIC [7] of the same molecule?
**A.** The MIC was at least 32 µM.

**Q.** What about the MIC [8] of the same molecule?
**A.** The MIC was at least 32 µM.

**Q.** And the MIC [9]?
**A.** The MIC was 2 µM (≈ 2.89 µg/mL).

**Q.** And the MIC [10]?
**A.** The MIC was 1 µM (≈ 1.44 µg/mL).

**Q.** What about the MIC [11] of the same molecule?
**A.** Its MIC is 30 µM (≈ 43.3 µg/mL).

**Q.** And the MIC [12]?
**A.** The MIC was 15 µM (≈ 21.6 µg/mL).

**Q.** What about the MIC [13] of the same molecule?
**A.** The MIC was 2 µM (≈ 2.89 µg/mL).

**Q.** And the MIC [14]?
**A.** The MIC was at least 32 µM.

**Q.** And the MIC [15]?
**A.** The MIC was over 32 µM.

**Q.** And the MIC [16]?
**A.** Its MIC is at least 32 µM.

**Q.** And the MIC [17]?
**A.** Its MIC is at least 32 µM.

**Q.** And the MIC [18]?
**A.** Its MIC is at least 32 µM.

**Q.** `CC[C@H](C)[C@H](NC(=O)[C@H](CCCN=C(N)N)NC(=O)[C@H](CC(C)C)NC(=O)[C@H](C)NC(=O)[C@H](CO)NC(=O)CNC(=O)[C@H](CCSC)NC(=O)[C@@H](N)Cc1ccccc1)C(=O)N[C@@H](C)C(=O)N[C@@H](C)C(=O)N[C@@H](CCCCN)C(=O)N[C@H](C(=O)N[C@@H](CC(C)C)C(=O)N1CCC[C@H]1C(=O)N[C@@H](C)C(=O)N[C@@H](C)C(=O)N[C@@H](CC(C)C)C(=O)N[C@H]1CSSC[C@@H](C(=O)O)NC(=O)[C@H](CCCCN)NC(=O)[C@H](CCCCN)NC(=O)[C@H](Cc2ccccc2)NC(=O)[C@H]([C@@H](C)CC)NC(=O)[C@H](CCC(N)=O)NC1=O)C(C)C` [FMGSALRIAAKVLPAALCQIFKKC] was tested. Which MIC [19] did it give?
**A.** The MIC was 19.4 µM (≈ 50 µg/mL).

**Q.** What about the MIC [20] of the same molecule?
**A.** The MIC was 2.42 µM (≈ 6.25 µg/mL).

**Q.** And the MIC [21]?
**A.** Its MIC is at least 38.8 µM.

**Q.** And the MIC [22]?
**A.** Its MIC is 2.42 µM (≈ 6.25 µg/mL).

**Q.** Which MIC [23] does the source give for `CSCC[C@H](NC(=O)CN)C(=O)N[C@@H](C)C(=O)N[C@@H](CO)C(=O)N[C@@H](CCCCN)C(=O)N[C@@H](C)C(=O)NCC(=O)N[C@@H](CO)C(=O)N[C@H](C(=O)N[C@@H](CC(C)C)C(=O)NCC(=O)N[C@@H](CCCCN)C(=O)N[C@H](C(=O)N[C@@H](C)C(=O)N[C@@H](CCCCN)C(=O)N[C@H](C(=O)N[C@@H](C)C(=O)N[C@@H](CC(C)C)C(=O)N[C@@H](CCCCN)C(=O)N[C@@H](C)C(=O)N[C@@H](C)C(=O)N[C@@H](CC(C)C)C(N)=O)C(C)C)C(C)C)C(C)C` [GMASKAGSVLGKVAKVALKAAL] here?
**A.** Its MIC is 12.5 µM (≈ 25.9 µg/mL).

**Q.** What about the MIC [24] of the same molecule?
**A.** The MIC was 3.1 µM (≈ 6.42 µg/mL).

**Q.** What about the MIC [25] of the same molecule?
**A.** The MIC was 11.3 µM (≈ 23.4 µg/mL).

**Q.** And the MIC [26]?
**A.** The MIC was at least 50 µM.

**Q.** What about the MIC [27] of the same molecule?
**A.** Its MIC is 5.66 µM (≈ 11.7 µg/mL).

**Q.** What about the MIC [10] of the same molecule?
**A.** The MIC was 35.4 µM (≈ 73.2 µg/mL).

**Q.** And the MIC [28]?
**A.** The MIC was at least 100 µM.

**Q.** What about the MIC [29] of the same molecule?
**A.** Its MIC is 12.5 µM (≈ 25.9 µg/mL).

**Q.** What about the MIC [30] of the same molecule?
**A.** Its MIC is 0.483 µM (≈ 1 µg/mL).

**Q.** What about the MIC [12] of the same molecule?
**A.** The MIC was 25 µM (≈ 51.7 µg/mL).

**Q.** And the MIC [15]?
**A.** The MIC was 12.5 µM (≈ 25.9 µg/mL).

**Q.** And the MIC [31]?
**A.** The MIC was 25 µM (≈ 51.7 µg/mL).

**Q.** What does the source list for `CC[C@H](C)[C@H](NC(=O)[C@H](C)NC(=O)[C@H](CO)NC(=O)[C@@H](NC(=O)[C@H](C)NC(=O)[C@@H](NC(=O)[C@@H]1CCCN1C(=O)[C@@H](NC(=O)[C@H](CCSC)NC(=O)CNC(=O)[C@H](CC(C)C)NC(=O)[C@@H](N)CC(C)C)[C@@H](C)CC)C(C)C)[C@@H](C)CC)C(=O)N[C@@H](CO)C(=O)N[C@@H](C)C(=O)N[C@@H](CC(C)C)C(=O)N[C@@H](CO)C(=O)N[C@@H](CCCCN)C(=O)N[C@@H](CC(C)C)C(N)=O` [LLGMIPVAISAISALSKL]?
**A.** MIC [32]: ≥ 100 µM; MIC [33]: ≥ 100 µM; MIC [34]: ≥ 100 µM; MIC [35]: > 100 µM; MIC [36]: ≥ 71.2 µM; MIC [37]: ≥ 100 µM; MIC [10]: 25 µM (≈ 44.9 µg/mL); MIC [38]: 17.8 µM (≈ 32 µg/mL); MIC [12]: > 100 µM; MIC [15]: > 100 µM; MIC [39]: 100 µM (≈ 180 µg/mL)

**Q.** Which results are given for `CC[C@H](C)[C@H](NC(=O)[C@H](CC(C)C)NC(=O)[C@H](CC(C)C)NC(=O)[C@H](CC(=O)O)NC(=O)[C@H](CCCCN)NC(=O)[C@@H](NC(=O)[C@@H](NC(=O)CNC(=O)[C@H](CC(C)C)NC(=O)[C@H](CC(C)C)NC(=O)[C@@H](N)CO)[C@@H](C)O)C(C)C)C(=O)NCC(=O)N[C@@H](C)C(=O)NCC(=O)N[C@@H](CCCCN)C(=O)N[C@@H](CO)C(=O)N[C@@H](C)C(=O)N[C@@H](C)C(=O)N[C@@H](CCC(N)=O)C(=O)N[C@@H](CO)C(=O)N[C@H](C(=O)N[C@@H](CC(C)C)C(=O)N[C@@H](CCCCN)C(=O)NCC(=O)N[C@@H](CC(C)C)C(=O)N[C@@H](CO)C(=O)N[C@H]1CSSC[C@@H](C(=O)O)NC(=O)[C@H](CC(=O)O)NC(=O)[C@H](CCCCN)NC(=O)[C@H](CO)NC(=O)[C@H](CC(C)C)NC(=O)[C@H](CCCCN)NC1=O)C(C)C` [SLLGTVKDLLIGAGKSAAQSVLKGLSCKLSKDC]?
**A.** MIC [19]: 19 µM (≈ 62.8 µg/mL); MIC [40]: 9.5 µM (≈ 31.4 µg/mL); MIC [41]: ≥ 150 µM; MIC [42]: 9.5 µM (≈ 31.4 µg/mL); MIC [43]: ≥ 37.5 µM; MIC [10]: 19 µM (≈ 62.8 µg/mL); MIC [44]: ≥ 150 µM
